The text below walks through data of patent publication EP4471049A1 (Zealand Pharma A/S, priority 2023, dated 2024).

In one data set the target is T1, human IL-23R (Homo sapiens, UniProt Q5VWK5).
T1 sequence (Q5VWK5 22-629): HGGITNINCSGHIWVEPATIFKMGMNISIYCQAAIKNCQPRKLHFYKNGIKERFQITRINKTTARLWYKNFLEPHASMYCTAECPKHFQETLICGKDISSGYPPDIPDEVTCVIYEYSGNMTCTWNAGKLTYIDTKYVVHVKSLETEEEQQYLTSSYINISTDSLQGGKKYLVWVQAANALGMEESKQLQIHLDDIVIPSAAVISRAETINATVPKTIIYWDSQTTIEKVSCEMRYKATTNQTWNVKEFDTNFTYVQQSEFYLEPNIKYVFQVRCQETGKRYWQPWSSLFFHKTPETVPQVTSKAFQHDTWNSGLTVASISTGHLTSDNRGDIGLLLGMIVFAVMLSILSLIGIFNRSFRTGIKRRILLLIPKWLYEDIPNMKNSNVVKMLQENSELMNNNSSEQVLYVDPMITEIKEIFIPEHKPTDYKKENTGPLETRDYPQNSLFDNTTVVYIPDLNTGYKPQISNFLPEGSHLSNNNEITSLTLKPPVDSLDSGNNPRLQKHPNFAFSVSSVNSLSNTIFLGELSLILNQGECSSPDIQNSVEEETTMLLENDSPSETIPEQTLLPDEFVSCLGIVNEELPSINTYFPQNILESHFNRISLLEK
Briefly: biochemical. In a few lines:
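BRET displacement of a TAMRA-labelled reference compound from N-terminal Nanoluc-IL-23R fusion protein in membranes from stably transfected HEK293 cells. Incubation 2 h at room temperature, then Nanoluc substrate was added and the TAMRA/Nanoluc ratio read. IC50 and maximal displacement came from 4-parameter logistic fits.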

The nature of data set [1]: Peptide stability in simulated gastric fluid (SGF). The class given is in vitro ADME. Conditions: pig, simulated gastric fluid (SGF) with porcine pepsin, 37 °C, pH 1.2, porcine pepsin 3.2 g/L. Summed up:
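Peptide incubated at 37 °C with gentle shaking in SGF (NaCl, pH 1.2). Samples centrifuged, diluted and analysed by LC-HRMS; percent remaining at each timepoint from absolute peak areas relative to time zero, with 4 h as the reference point.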

*1 amine or outer side, *2 acyl side, *3 side chain or, on linkers, in order; H or OH if unused. Where a SMILES comes first, the peptide text is derived from it. Bridges are numbered along the chain shown (N, C = ends). [ ]: non-standard residue; d: D form. 2Nal = N[C@@H](Cc1ccc2ccccc2c1)C(=O)O; AEF = NCCOc1ccc(C[C@H](N)C(=O)O)cc1; X1 = O=C(Cc1ccc(CN[*:1])cc1)[*:2]; 3Pal = N[C@@H](Cc1cccnc1)C(=O)O; αMeL = CC(C)C[C@](C)(N)C(=O)O; Dab = NCC[C@H](N)C(=O)O; Sar = CNCC(=O)O

The term IC50 denotes the concentration that inhibits the measured activity by half. As a reminder, the fraction remaining is the share of the starting amount still present when the sample was taken. Read a high fraction remaining as greater stability. Turning to `CC(C)C[C@]1(C)NC(=O)[C@H](Cc2ccc3ccccc3c2)NC(=O)[C@H](Cc2ccc(OCCN)cc2)NC(=O)[C@@H]2CCNC(=O)CC[C@H](NC(=O)[C@H](CO)NC(=O)Cc3ccc(cc3)CNC(=O)CC[C@@H](C(=O)N[C@@H](CCN)C(=O)N[C@@](C)(Cc3cccnc3)C(N)=O)NC1=O)C(=O)N[C@@H](Cc1c[nH]c3ccccc13)C(=O)N[C@@H](CCC(N)=O)C(=O)N2` [Compound 3, [4-Aminomethyl-phenylacetyl](1c)*SE(2c)WQ[Dab](2c)[Y(2-aminoethoxy)][2-Nal][2-Me-Leu]E(1c)[Dab][2-Me-3-(3-Pyridyl)-Ala]-[NH2]], at human IL-23R, the “% displacement (hIL-23R binding)” value came to 99% and the concentration for half-maximal inhibition (IC50) is 0.034 nM. This molecule came in with a fraction remaining at 1 h, 10 µM in data set [1] of 99%.

On to `CC(C)C[C@]1(C)NC(=O)[C@H](Cc2ccc3ccccc3c2)NC(=O)[C@H](Cc2ccc(OCCN)cc2)NC(=O)[C@@H]2CCNC(=O)CC[C@H](NC(=O)[C@H](CO)NC(=O)Cc3ccc(cc3)CNC(=O)CC[C@@H](C(=O)N[C@@H](CCN)C(=O)N(C)[C@@H](Cc3cccnc3)C(N)=O)NC1=O)C(=O)N[C@@H](Cc1c[nH]c3ccccc13)C(=O)N[C@@H](CCC(N)=O)C(=O)N2` [Compound 4, [4-Aminomethyl-phenylacetyl](1c)*SE(2c)WQ[Dab](2c)[Y(2-aminoethoxy)][2-Nal][2-Me-Leu]E(1c)[Dab][N-Me-3-(3-Pyridyl)-Ala]-[NH2]], for which, on human IL-23R, the “% displacement (hIL-23R binding)” value was determined as 111%. The share remaining at 1 h, 10 µM in data set [1] was 97%.

With `CC(C)C[C@]1(C)NC(=O)[C@H](Cc2ccc3ccccc3c2)NC(=O)[C@H](Cc2ccc(OCCN)cc2)NC(=O)[C@@H]2CCNC(=O)CC[C@H](NC(=O)[C@H](CO)NC(=O)Cc3ccc(cc3)CNC(=O)CC[C@@H](C(=O)N[C@@H](CCN)C(=O)N[C@H](Cc3cccnc3)C(N)=O)NC1=O)C(=O)N[C@@H](Cc1c[nH]c3ccccc13)C(=O)N[C@@H](CCC(N)=O)C(=O)N2` [Compound 5, [4-Aminomethyl-phenylacetyl](1c)*SE(2c)WQ[Dab](2c)[Y(2-aminoethoxy)][2-Nal][2-Me-Leu]E(1c)[Dab][{d}3-(3-Pyridyl)-Ala]-[NH2]], at human IL-23R, the “% displacement (hIL-23R binding)” value came out at 99% and the midpoint of inhibition, the IC50, lay at 0.093 nM. Besides, the share remaining at 1 h, 10 µM in data set [1] was 99%.

As to `CC(C)C[C@]1(C)NC(=O)[C@H](Cc2ccc3ccccc3c2)NC(=O)[C@H](Cc2ccc(OCCN)cc2)NC(=O)[C@@H]2CCNC(=O)CC[C@H](NC(=O)[C@H](CO)NC(=O)Cc3ccc(cc3)CNC(=O)CC[C@@H](C(=O)N[C@@H](CCN)C(=O)NCCCCc3cccnc3)NC1=O)C(=O)N[C@@H](Cc1c[nH]c3ccccc13)C(=O)N[C@@H](CCC(N)=O)C(=O)N2` [Compound 6, [4-Aminomethyl-phenylacetyl](1c)*SE(2c)WQ[Dab](2c)[Y(2-aminoethoxy)][2-Nal][2-Me-Leu]E(1c)[Dab]-[NH-(4-(pyridin-3-yl)butanyl)]], the “% displacement (hIL-23R binding)” value at human IL-23R is reported as 103%.

Molecule `CC(C)C[C@]1(C)NC(=O)[C@H](Cc2ccc3ccccc3c2)NC(=O)[C@H](Cc2ccc(OCCN)cc2)NC(=O)[C@@H]2CCNC(=O)CC[C@H](NC(=O)[C@H](CO)NC(=O)Cc3ccc(cc3)CNC(=O)CC[C@@H](C(=O)N[C@@H](CCN)C(=O)NCCc3cccnc3)NC1=O)C(=O)N[C@@H](Cc1c[nH]c3ccccc13)C(=O)N[C@@H](CCC(N)=O)C(=O)N2` [Compound 7, [4-Aminomethyl-phenylacetyl](1c)*SE(2c)WQ[Dab](2c)[Y(2-aminoethoxy)][2-Nal][2-Me-Leu]E(1c)[Dab]-[NH-(2-(pyridin-3-yl)ethyl)]] registered an IC50 at human IL-23R of 0.012 nM. The Emax at human IL-23R (read-out: % displacement (hIL-23R binding)) worked out at 102%. In data set [1], this molecule came in with an amount remaining at 1 h, 10 µM of 77% and an amount remaining at 4 h, 10 µM of 82%.

On to `CNC(=O)[C@H](Cc1cccnc1)NC(=O)[C@H](CCN)NC(=O)[C@@H]1CCC(=O)NCc2ccc(cc2)CC(=O)N[C@@H](CO)C(=O)N[C@H]2CCC(=O)NCC[C@H](NC(=O)[C@H](CCC(N)=O)NC(=O)[C@H](Cc3c[nH]c4ccccc34)NC2=O)C(=O)N[C@@H](Cc2ccc(OCCN)cc2)C(=O)N[C@@H](Cc2ccc3ccccc3c2)C(=O)N[C@@](C)(CC(C)C)C(=O)N1` [Compound 8, [4-Aminomethyl-phenylacetyl](1c)*SE(2c)WQ[Dab](2c)[Y(2-aminoethoxy)][2-Nal][2-Me-Leu]E(1c)[Dab][3-(3-Pyridyl)-Ala]-[NHMe]], for which, at human IL-23R, the “% displacement (hIL-23R binding)” value came out at 103% and the IC50 was 0.0098 nM.

As for `CC(C)C[C@]1(C)NC(=O)[C@H](Cc2ccc3ccccc3c2)NC(=O)[C@H](Cc2ccc(OCCN)cc2)NC(=O)[C@@H]2CCNC(=O)CC[C@H](NC(=O)[C@H](CO)NC(=O)Cc3ccc(cc3)CNC(=O)CC[C@@H](C(=O)N[C@@H](CCN)C(=O)N[C@@H](Cc3cccnc3)C(=O)N(C)CC(N)=O)NC1=O)C(=O)N[C@@H](Cc1c[nH]c3ccccc13)C(=O)N[C@@H](CCC(N)=O)C(=O)N2` [Compound 9, [4-Aminomethyl-phenylacetyl](1c)*SE(2c)WQ[Dab](2c)[Y(2-aminoethoxy)][2-Nal][2-Me-Leu]E(1c)[Dab][3-(3-Pyridyl)-Ala][Sar]-[NH2]] ([X1]SEWQ[Dab][AEF][2Nal][αMeL]E[Dab][3Pal][Sar]-NH2; lactam 3-6, N-10), at human IL-23R, the “% displacement (hIL-23R binding)” value came out at 100% and the IC50 worked out at 0.0053 nM. For the same molecule, in data set [1], the fraction remaining at 1 h, 10 µM is 96%.

On to `CC(C)C[C@]1(C)NC(=O)[C@H](Cc2ccc3ccccc3c2)NC(=O)[C@H](Cc2ccc(OCCN)cc2)NC(=O)[C@@H]2CCNC(=O)CC[C@H](NC(=O)[C@H](CO)NC(=O)Cc3ccc(cc3)CNC(=O)CC[C@@H](C(=O)N[C@@H](CCN)C(=O)N[C@@H](Cc3cccnc3)C(=O)N[C@H](Cc3c[nH]cn3)C(N)=O)NC1=O)C(=O)N[C@@H](Cc1c[nH]c3ccccc13)C(=O)N[C@@H](CCC(N)=O)C(=O)N2` [Compound 10, [4-Aminomethyl-phenylacetyl](1c)*SE(2c)WQ[Dab](2c)[Y(2-aminoethoxy)][2-Nal][2-Me-Leu]E(1c)[Dab][3-(3-Pyridyl)-Ala][{d}H]-[NH2]] ([X1]SEWQ[Dab][AEF][2Nal][αMeL]E[Dab][3Pal][dH]-NH2; lactam 3-6, N-10), for which, at human IL-23R, the “% displacement (hIL-23R binding)” value was 91% and the IC50 is 0.0058 nM. In data set [1], this molecule gave an amount remaining at 1 h, 10 µM of 97% and a fraction remaining at 4 h, 10 µM of 86%.

On to `CC(C)C[C@]1(C)NC(=O)[C@H](Cc2ccc3ccccc3c2)NC(=O)[C@H](Cc2ccc(OCCN)cc2)NC(=O)[C@@H]2CCNC(=O)CC[C@H](NC(=O)[C@H](CO)NC(=O)Cc3ccc(cc3)CNC(=O)CC[C@@H](C(=O)N[C@@H](CCN)C(=O)N[C@@H](Cc3c[nH]cn3)C(=O)N[C@@H](Cc3cccnc3)C(N)=O)NC1=O)C(=O)N[C@@H](Cc1c[nH]c3ccccc13)C(=O)N[C@@H](CCC(N)=O)C(=O)N2` [Compound 12, [4-Aminomethyl-phenylacetyl](1c)*SE(2c)WQ[Dab](2c)[Y(2-aminoethoxy)][2-Nal][2-Me-Leu]E(1c)[Dab]H[3-(3-Pyridyl)-Ala]-[NH2]] ([X1]SEWQ[Dab][AEF][2Nal][αMeL]E[Dab]H[3Pal]-NH2; lactam 3-6, N-10), for which, on human IL-23R, the “% displacement (hIL-23R binding)” value turned out to be 104% and half-maximal inhibition (IC50) required 0.057 nM. Moreover, the fraction remaining at 4 h, 10 µM in data set [1] was 93%.

In the case of `CC(C)C[C@]1(C)NC(=O)[C@H](Cc2ccc3ccccc3c2)NC(=O)[C@H](Cc2ccc(OCCN)cc2)NC(=O)[C@@H]2CCNC(=O)CC[C@H](NC(=O)[C@H](CO)NC(=O)Cc3ccc(cc3)CNC(=O)CC[C@@H](C(=O)N[C@@H](CCN)C(=O)N[C@H](Cc3c[nH]cn3)C(N)=O)NC1=O)C(=O)N[C@@H](Cc1c[nH]c3ccccc13)C(=O)N[C@@H](CCC(N)=O)C(=O)N2` [Compound 13, [4-Aminomethyl-phenylacetyl](1c)*SE(2c)WQ[Dab](2c)[Y(2-aminoethoxy)][2-Nal][2-Me-Leu]E(1c)[Dab][{d}H]-[NH2]], at human IL-23R, the “% displacement (hIL-23R binding)” value is 100% and the midpoint of inhibition, the IC50, lay at 0.059 nM. The fraction remaining at 4 h, 10 µM in data set [1] was 78%.
